In this assay the test system is influenza A virus A/Aichi/2/68 (H3N2) (Aichi (H3N2)). As to the kind of experiment: microbe, parasite or virus in culture. Particulars: Influenza A virus, H3N2, MDCK, read-out: IC50 (50% inhibitory concentration). It counts as cell-based.

Molecules are shown by their SMILES.

The record followed here is publication PMC8116641 (Archives of Virology, 2021).

With `CC1(C)[C@H]2CC[C@]1(C)[C@H](OC(=O)C[N+](C)(C)C)C2.[I-]` [10a, N,N,N-Trimethyl-2-oxo-2-((1S,2R,4S)-1,7,7-trimethylbicyclo[2.2.1]heptan-2-yloxy)ethanaminium iodide], the IC50 came to 16.8 µM.
